A short description of data set [1]: Plasma pharmacokinetics of bortezomib and docetaxel given in combination. The following applies: human, plasma, intravenous; for AUC(0-t): read-out: AUC0–t, mean (%CV); for AUC(0-inf): read-out: AUC0–∞∞, mean (%CV); for clearance: read-out: CL, mean (%CV) (converted); for Cmax: read-out: Cmax, mean (%CV). It counts as in vivo, patients.
Excerpt: (§1) In patients participating in pharmacokinetic analysis, blood samples were taken on day 1, cycle 1, to determine the plasma concentration time profile of docetaxel and bortezomib. Samples were collected immediately before docetaxel infusion and bortezomib injection and at prespecified intervals on day 1. Samples were also taken for bortezomib pharmacokinetic analysis on day 11 of cycle 1. Whole-blood samples were taken for pharmacodynamic analysis using 20S proteasome inhibition assay ([Lightcap et al, 2000]) immediately before and 1 h after bortezomib dosing on days 1 and 11 of cycles 1 and 2, and on days 2 and 12 of cycle 1, in a subset of patients participating in pharmacokinetic analysis.
Data set [2] deals with 20S proteasome (Homo sapiens, UniProt P28074). The experiment in a line: 20S proteasome inhibition assay in whole blood. It counts as in vivo, patients. The following applies: whole blood.
Chain of 20S proteasome (P28074 60-263): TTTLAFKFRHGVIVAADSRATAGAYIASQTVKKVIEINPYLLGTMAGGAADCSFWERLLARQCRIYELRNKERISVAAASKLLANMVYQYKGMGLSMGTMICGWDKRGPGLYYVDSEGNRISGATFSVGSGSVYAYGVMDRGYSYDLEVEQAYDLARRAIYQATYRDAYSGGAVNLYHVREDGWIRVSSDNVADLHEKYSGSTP
Excerpt: as §1
Data set [3] relates to metastatic breast cancer. The following applies: single agent, anthracycline-pretreated metastatic breast cancer ref Jones et al, 2005; cited from earlier work.
The subject of data set [4] is alpha-1 acid glycoprotein (AAG), albumin, and lipoproteins. Set-up: method as in Aventis Pharmaceuticals Inc, 2005. The following applies: in vitro ref Aventis Pharmaceuticals Inc, 2005; cited from earlier work.
Setting [5] is: 75 mg, docetaxel 75 mg m^−2 (n=7), day 1, with bortezomib.
Setting [6] is: 100 mg, docetaxel 100 mg m^−2 (n=6), day 1, with bortezomib.

Entries after “also recorded” stand apart in the source; their conditions may differ. Read-outs that look alike come from different tables or passages of the source.

A word on the Cmax: it is the highest concentration seen after dosing.

Consider `CC(=O)O[C@@]12CO[C@@H]1C[C@H](O)[C@@]1(C)C(=O)[C@H](O)C3=C(C)[C@@H](OC(=O)[C@H](O)[C@@H](NC(=O)OC(C)(C)C)c4ccccc4)C[C@@](O)([C@@H](OC(=O)c4ccccc4)[C@H]21)C3(C)C` [Docetaxel], for which the AUC(0-t) in data set [1] (setting [5]) is 1700 ng·h/mL; in data set [1] (setting [6]), 2550 ng·h/mL. Further, the AUC(0-inf) in data set [1] (setting [5]) came out at 1850 ng·h/mL; in data set [1] (setting [6]), 2730 ng·h/mL. Further, the clearance is 1420 mL/min in data set [1] (setting [5]) and 1160 mL/min in data set [1] (setting [6]). Further, the half-life was 624 min in data set [1] (75 mg, docetaxel 75 mg m^−2 (n=7), day 1, with bortezomib, read-out: T½,z, mean (%CV) (converted)); 1060 min in data set [1] (75 mg, docetaxel 75 mg m^−2, day 1, patients with measurable plasma concentrations at 24 h post-dose (n=3), read-out: T½,z 24-h, mean (converted)); 900 min in data set [1] (100 mg, docetaxel 100 mg m^−2 (n=6), day 1, with bortezomib, read-out: T½,z, mean (%CV) (converted)); 1040 min in data set [1] (100 mg, docetaxel 100 mg m^−2, day 1, patients with measurable plasma concentrations at 24 h post-dose (n=5), read-out: T½,z 24-h, mean (converted)). Moreover, the Vd in data set [1] (75 mg, docetaxel 75 mg m^−2 (n=7), day 1, with bortezomib, read-out: Vss, mean (%CV)) came out at 180 L; in data set [1] (75 mg, docetaxel 75 mg m^−2 (n=7), day 1, with bortezomib, read-out: Vz, mean (%CV)) it was 920 L; in data set [1] (100 mg, docetaxel 100 mg m^−2 (n=6), day 1, with bortezomib, read-out: Vss, mean (%CV)), 372 L; in data set [1] (100 mg, docetaxel 100 mg m^−2 (n=6), day 1, with bortezomib, read-out: Vz, mean (%CV)), 1510 L. The Cmax in data set [1] (docetaxel 75 mg m^−2 (n=7), day 1, with bortezomib) was found to be 1620 ng/mL; in data set [1] (docetaxel 100 mg m^−2 (n=6), day 1, with bortezomib), 2520 ng/mL. The “Effect of coadministered docetaxel on 20S proteasome inhibition by bortezomib” value in data set [2] is recorded as “appeared not to affect; also recorded: did not appear to affect”. In data set [3], the “Median TTP” value is on record as 5.7 months. Also, the Response rate in data set [3] was 32%. Also, the Plasma protein binding entry in data set [4] is listed as “extensively plasma protein-bound”.
For `CC(=O)O[C@H]1C(=O)[C@@]2(C)[C@H]([C@H](OC(=O)c3ccccc3)[C@]3(O)C[C@H](OC(=O)[C@H](O)[C@@H](NC(=O)c4ccccc4)c4ccccc4)C(C)=C1C3(C)C)[C@]1(OC(C)=O)CO[C@@H]1C[C@@H]2O` [paclitaxel], in data set [3], the “Median TTP” value is 3.6 months and the Response rate is given as 25%.

The record behind these values is publication PMC2391111 (British Journal of Cancer, 2008).
